Experimental data from ChEMBL document CHEMBL6153097, “Design, synthesis, and biological evaluation of Flavokavain B derivatives as potent TRF2 inhibitors for the treatment of Osteosarcoma” (Eur J Med Chem, 2025).
The source made the active and inactive calls. No cut-off for these calls is given here.

Tests used:
MG-63 [1] = assay: Induction of apoptosis in human MG-63 cells assessed as necrotic cells at 4 uM measured after 48 hrs annexin-V and propidium iodide staining based flow cytometry analysis (reference value: 0.52%); assay type: functional
[2] = Acute toxicity in mouse assessed as effect on body weight at 30 to 90 mg/kg, po single dose measured for 7 days; assay type: organism-based; details: in vivo, 168 h, dose 30-90 mg/kg, time 7 day
U2OS [3] = assay: Induction of apoptosis in human U2OS cells assessed as viable cells at 4 uM measured after 48 hrs annexin-V and propidium iodide staining based flow cytometry analysis (reference value: 89.2%); assay type: functional; details: read-out: Activity
MG-63 [4] = assay: Antitumor activity against human MG-63 cells xenografted in female BALB/c mouse model assessed as downregulation of TRF2 in tumor treated via oral gavage administered once a day for 3 weeks by IHC analysis; assay type: functional, cell-based; details: dose 10-60 mg/kg
U2OS [5] = assay: Induction of apoptosis in human U2OS cells assessed as necrotic apoptotic cells at 2 uM measured after 48 hrs annexin-V and propidium iodide staining based flow cytometry analysis (reference value: 2.46%); assay type: functional
MG-63 [6] = assay: Induction of apoptosis in human MG-63 cells assessed as viable cells at 2 uM measured after 48 hrs annexin-V and propidium iodide staining based flow cytometry analysis (reference value: 90.7%); assay type: functional; details: read-out: Activity
[7] = Acute toxicity in mouse assessed as change in weight of kidney at 30 to 90 mg/kg, po single dose measured for 7 days; assay type: organism-based; details: in vivo, 168 h, dose 30-90 mg/kg, time 7 day
MG-63 [8] = assay: Downregulation of TRF expression levels in human MG-63 cells measured after 48 hrs by Western blot analysis; assay type: functional, cell-based; details: dose 2-4 µM
MG-63 [9] = assay: Induction of apoptosis in human MG-63 cells assessed as viable cells at 4 uM measured after 48 hrs annexin-V and propidium iodide staining based flow cytometry analysis (reference value: 90.7%); assay type: functional; details: read-out: Activity
U2OS [10] = assay: Antiproliferative activity against human U2OS cells assessed as reduction in cell viability incubated for 48 hrs by MTT assay; assay type: functional, cell-based
U2OS [11] = assay: Induction of DNA damage response in human U2OS cells assessed as reduction in TRF2 expression by measuring accumulation of telomere-free ends at 2 to 4 uM by FITC/DAPI based Quantitative FISH (Q-FISH) assay; assay type: functional, cell-based; details: dose 2-4 µM
[12] = target: T1, Telomeric repeat-binding factor 2 (Homo sapiens) (UniProt Q15554); assay: Induction of thermal stabilization of TRF2 TRFH domain in human MG-63 cells at 46 to 55 degC incubated for 4 hrs by cellular thermal shift assay (CESTA) based Western blot analysis; assay type: cell-based
T1 sequence (whole entry): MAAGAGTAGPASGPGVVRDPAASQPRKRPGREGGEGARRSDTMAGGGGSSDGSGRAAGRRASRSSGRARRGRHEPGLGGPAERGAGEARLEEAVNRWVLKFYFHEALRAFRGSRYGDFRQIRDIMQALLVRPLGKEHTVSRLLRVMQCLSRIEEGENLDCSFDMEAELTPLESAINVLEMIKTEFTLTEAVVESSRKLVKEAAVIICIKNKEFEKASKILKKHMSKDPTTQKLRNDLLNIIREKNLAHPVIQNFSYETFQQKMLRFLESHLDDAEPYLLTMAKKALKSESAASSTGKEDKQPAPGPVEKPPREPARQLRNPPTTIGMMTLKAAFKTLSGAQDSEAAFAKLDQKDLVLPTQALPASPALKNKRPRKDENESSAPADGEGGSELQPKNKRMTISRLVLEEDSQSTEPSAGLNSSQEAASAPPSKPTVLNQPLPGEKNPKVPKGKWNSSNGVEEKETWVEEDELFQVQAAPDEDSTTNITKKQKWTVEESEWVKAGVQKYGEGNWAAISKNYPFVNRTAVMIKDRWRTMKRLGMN

MG-63 [13] = assay: Induction of apoptosis in human MG-63 cells assessed as early apoptotic cells at 2 uM measured after 48 hrs annexin-V and propidium iodide staining based flow cytometry analysis (reference value: 0.66%); assay type: functional
U2OS [14] = assay: Induction of apoptosis in human U2OS cells assessed as early apoptotic cells at 2 uM measured after 48 hrs annexin-V and propidium iodide staining based flow cytometry analysis (reference value: 2.38%); assay type: functional
MG-63 [15] = assay: Antiproliferative activity against human MG-63 cells assessed as reduction in cell viability incubated for 48 hrs by MTT assay; assay type: functional, cell-based; details: MG-63, 48 h
[16] = Acute toxicity in mouse assessed as alanine aminotransferase level (ALT) level in serum at 30 to 90 mg/kg, po single dose measured for 7 days; assay type: organism-based; details: in vivo, 168 h, dose 30-90 mg/kg, time 7 day
U2OS [17] = assay: Induction of DNA damage in human U2OS cells assessed as increase in telomere dysfunction-foci at 4 uM by Immunofluorescence based FISH assay; assay type: functional, cell-based
MG-63 [18] = assay: Antitumor activity against human MG-63 cells xenografted in female BALB/c mouse model assessed as upregulation of gamma-H2AX in tumor treated via oral gavage administered once a day for 3 weeks by IHC analysis; assay type: functional, cell-based; details: dose 10-60 mg/kg
[19] = Inhibition of TRF2 expression in human U2OS cells at 2 uM measured after 48 hrs by Western blot analysis relative to control; assay type: functional
MG-63 [20] = assay: Induction of apoptosis in human MG-63 cells assessed as reduction in TRF2 foci at 2 to 4 microM by Immunofluorescence based FISH assay; assay type: functional, cell-based; details: dose 2-4 µM
MG-63 [21] = assay: Induction of apoptosis in human MG-63 cells assessed as late apoptotic cells at 4 uM measured after 48 hrs annexin-V and propidium iodide staining based flow cytometry analysis (reference value: 7.71%); assay type: functional
U2OS [22] = assay: Induction of apoptosis in human U2OS cells assessed as early apoptotic cells at 4 uM measured after 48 hrs annexin-V and propidium iodide staining based flow cytometry analysis (reference value: 2.38%); assay type: functional
[23] = Acute toxicity in mouse assessed as change in weight of lung at 30 to 90 mg/kg, po single dose measured for 7 days; assay type: organism-based; details: in vivo, 168 h, dose 30-90 mg/kg, time 7 day
MG-63 [24] = assay: Antitumor activity against human MG-63 cells xenografted in female BALB/c mouse model assessed as tumour growth suppression at 10 to 60 mg/kg, via oral gavage administered once a day for 3 weeks; assay type: functional, organism-based; details: dose 10-60 mg/kg
MG-63 [25] = assay: Induction of apoptosis in human MG-63 cells assessed as late apoptotic cells at 2 uM measured after 48 hrs annexin-V and propidium iodide staining based flow cytometry analysis (reference value: 7.71%); assay type: functional
MG-63 [26] = assay: Antitumor activity against human MG-63 cells xenografted in female BALB/c mouse model assessed as nucleocytoplasmic separation in tumor tissue treated via oral gavage administered once a day for 3 weeks by HE staining analysis; assay type: functional, cell-based; details: dose 10-60 mg/kg
MG-63 [27] = assay: Antitumor activity against human MG-63 cells xenografted in female BALB/c mouse model assessed as incomplete nuclei appearance in tumor tissue treated via oral gavage administered once a day for 3 weeks by HE staining analysis; assay type: functional, cell-based; details: dose 10-60 mg/kg
MG-63 [28] = assay: Induction of DNA damage response in human MG-63 cells assessed as telomere dysfunction by measuring telomere length shortening at 2 to 4 uM by Immunofluorescence based FISH assay; assay type: functional, cell-based; details: dose 2-4 µM
MG-63 [29] = assay: Inhibition of TRF2 expression in human MG-63 cells by co-immunoprecipitation based Western blot analysis; assay type: functional, cell-based
MG-63 [30] = assay: Induction of apoptosis in human MG-63 cells assessed as necrotic cells at 2 uM measured after 48 hrs annexin-V and propidium iodide staining based flow cytometry analysis (reference value: 0.52%); assay type: functional
[31] = Acute toxicity in mouse assessed as change in weight of spleen at 30 to 90 mg/kg, po single dose measured for 7 days; assay type: organism-based; details: in vivo, 168 h, dose 30-90 mg/kg, time 7 day

## COc1cc(OC)c(C(=O)/C=C/c2cccc(Br)c2)c(OC)c1
MG-63 [1]
  Activity: 5.47%
[2]
  Activity: Non-toxic
U2OS [3]
  viability at 4 µM: 52.2%
MG-63 [4]
  Activity: Dose-dependent-effect
U2OS [5]
  Activity: 1.18%
MG-63 [6]
  viability at 2 µM: 47.9%
[7]
  Activity: Non-toxic
MG-63 [8]
  Activity: Dose-dependent-effect
MG-63 [9]
  viability at 4 µM: 17.5%
U2OS [10]
  IC50: 5.28 µM
U2OS [11]
  Activity: Active
[12]
  Activity: Active
MG-63 [13]
  Activity: 11.2%
U2OS [14]
  Activity: 12.9%
MG-63 [15]
  IC50: 1.52 µM
[16]
  Activity: Non-toxic
U2OS [17]
  Activity: Active
MG-63 [18]
  Activity: Dose-dependent-effect; Compound Showed Significantly Stronger Effect Than Ar And Fkb04
[19]
  inhibition at 2 µM: 55.1%
MG-63 [20]
  Activity: Active
MG-63 [21]
  Activity: 61.9%
U2OS [22]
  Activity: 31%
[23]
  Activity: Non-toxic
MG-63 [24]
  Activity: Active; Stronger Than Control Drugs
MG-63 [25]
  Activity: 38.2%
MG-63 [26]
  Activity: Dose-dependent-effect; Significant Than Control
MG-63 [27]
  Activity: Dose-dependent-effect
MG-63 [28]
  Activity: Dose-dependent-effect
MG-63 [29]
  inhibition: Active
MG-63 [30]
  Activity: 2.69%
[31]
  Activity: Non-toxic
